Assay results: patent US10738062B2, “Chromane-substituted tetracyclic compounds and uses thereof for the treatment of viral diseases” (Merck Sharp & Dohme Corp., priority 2016, dated 2020)
Like-named read-outs stand apart in the source and are kept apart here.

Assays:
Design in all cases: species or system Hepatitis C virus
HCV replicon 1A = assay: Cell-based HCV replicon assay (Replicon Assay A), replicon 1A; settings: replicon RNA by real time PCR, day 3
Experimental: (§1) To measure cell-based anti-HCV activity of compounds of the present invention, two complimentary assays were employed using various replicons. In the first assay (“Replicon Assay A”), replicon cells were seeded at 2000 cells/well in 384-well 384-well flat bottom tissue culture treated clear bottom plate (Corning 3707) in the presence of the test compound. Various concentrations of test compound, typically in 10 serial dilutions, were added to the assay mixture, with the starting concentration ranging from 333.3 nM to 1.667 nM. The final concentration of DMSO was 0.5%. Fetal bovine serum was 5%, in the assay media. Cells were harvested on day 3 by removing media and washing the cells with a suitable wash buffer. The cells were lysed with the addition of 1× Qiagen lysis buffer (Cat #1062731). The replicon RNA level was measured using real time PCR (TaqMan® EZ RT-PCR, Applied Biosystems 403028) with the following primers and probes: […]
(§2) Cyclophilin RNA was used as endogenous control and was amplified in the same reaction as NS5B (multiplex PCR). The real-time RT-PCR reactions were run on ABI PRISM 7900HT Sequence Detection System using the following program: 50° C. for 2 minutes, 60° C. for 30 minutes, 95° C. for 5 minutes, 40 cycles of 94° C. for 20 sec, 55° C. for 1 minutes.
(§3) The amount of HCV replicon RNA per cell was quantified using a linear regression curve for a known nanogram (ng) amount of HCV replicon total RNA. This was established by plotting the Cycle Threshold values (Ct) from the Neo probe and primer set versus the log (ng) for each HCV replicon total RNA standard. The amount of HCV RNA for each replicon sample was calculated by taking the sample's Ct value, minus the line intercept, divided by the slope of the line. Similarly, the amount of Cyclophilin mRNA per cell was also quantified using a linear regression curve for a known nanogram (ng) amount of HCV replicon total RNA. Again, this was established by plotting the Cycle Threshold values (Ct) from the Cyclophilin probe and primer set versus the log (ng) for each HCV replicon total RNA standard.
(§4) The real-time RT-PCR reactions were run on ABI PRISM 7900HT or Viia7 Sequence Detection System using the following program: 48° C. for 30 minutes, 95° C. for 10 minutes, 40 cycles of 95° C. for 15 sec, 60° C. for 1 minutes. The 50% effective concentration (EC50) was the drug concentration necessary to achieve an increase in the cycle threshold (CT) of 1 over the projected baseline CT.
(§5) Data was obtained for various compounds of the present invention using the methods described in the Example above, and is presented in the table immediately below. EC50 data for replicons 1A, 1AY93H and 2B were obtained using Replicon Assay A and EC50 data for replicon 1B was obtained using Replicon Assay B.

HCV replicon 2B = assay: Cell-based HCV replicon assay (Replicon Assay A), replicon 2B; settings: replicon RNA by real time PCR, day 3
Experimental: as §1, §2, §3, §4, §5

HCV replicon 1A Y93H = assay: Cell-based HCV replicon assay (Replicon Assay A), replicon 1AY93H; settings: read-out: EC50 replicon 1A Y93H; Replicon Assay A; replicon RNA by real time PCR, day 3
Experimental: as §1, §2, §3, §4, §5

[1] = read-out: EC50 replicon 2B, Replicon Assay A

Compound	EC50 (HCV replicon 1A)	EC50 (HCV replicon 2B; [1])	EC50 (HCV replicon 1A Y93H)	EC50 (HCV replicon 1A; Hepatitis C virus, 72 h)	EC50 (HCV replicon 2B; Hepatitis C virus, 72 h, read-out: EC50 replicon 2B, Replicon Assay A)
COC(=O)N[C@H](C(=O)N1CCC[C@H]1c1ncc(-c2cc(F)c3c(c2)OC(c2ccc4c(c2)CC2CC2(C)O4)n2c-3cc3cc(-c4cnc([C@@H]5CCCN5C(=O)[C@@H](NC(=O)OC)C(C)C)[nH]4)ccc32)[nH]1)C(C)C (single isomer, unassigned) [Compound 26]	0.0028 nM	1.41 nM	0.344 nM		
COC(=O)N[C@H](C(=O)N1CCC[C@H]1c1ncc(-c2cc(F)c3c(c2)OC(c2ccc4c(c2)OC(C)(C)C4)n2c-3cc3cc(-c4cnc([C@@H]5CCCN5C(=O)[C@@H](NC(=O)OC)C(C)C)[nH]4)ccc32)[nH]1)C(C)C (single isomer, unassigned) [Compound 27]		1.48 nM	1.08 nM	0.0014 nM	
COC(=O)N[C@H](C(=O)N1CCC[C@H]1c1ncc(-c2cc(F)c3c(c2)OC(c2ccc4c(c2)CCCO4)n2c-3cc3cc(-c4cnc([C@@H]5CCCN5C(=O)[C@@H](NC(=O)OC)C5CCOCC5)[nH]4)ccc32)[nH]1)C(C)C (single isomer, unassigned) [Compound 36]	0.0021 nM	0.416 nM	0.426 nM		
COC(=O)N[C@H](C(=O)N1CCC[C@H]1c1ncc(-c2cc(F)c3c(c2)OC(c2ccc4c(c2)CCCO4)n2c-3cc3cc(-c4cnc([C@@H]5C[C@H]6C[C@H]6N5C(=O)[C@@H](NC(=O)OC)C(C)C)[nH]4)ccc32)[nH]1)C(C)C (single isomer, unassigned) [Compound 45]	0.001 nM		0.12 nM		5.28 nM
COC(=O)N[C@H](C(=O)N1CCC[C@H]1c1ncc(-c2cc(F)c3c(c2)OC(c2ccc4c(c2)CCCO4)n2c-3cc3cc(-c4cnc([C@@H]5C[C@H]6C[C@H]6N5C(=O)[C@@H](NC(=O)OC)C(C)C)[nH]4)ccc32)[nH]1)C(C)C (single isomer, unassigned) [Compound 46]	0.0026 nM	7.71 nM	4.13 nM		
COC(=O)N[C@H](C(=O)N1CCC[C@H]1c1ncc(-c2ccc3c(c2)OC(c2ccc4c(c2)OCCC4)n2c-3cc3cc(-c4cnc([C@@H]5C[C@H]6C[C@H]6N5C(=O)[C@@H](NC(=O)OC)C(C)C)[nH]4)ccc32)[nH]1)C(C)C (single isomer, unassigned) [Compound 49]		0.817 nM	2.44 nM	0.0016 nM	
COC(=O)NC(C(=O)N1CCC[C@H]1c1ncc(-c2ccc3c(c2)cc2n3C(c3ccc4c(c3)CCC(C)O4)Oc3cc(-c4cnc([C@@H]5CCCN5C(=O)[C@@H](NC(=O)OC)C(C)C)[nH]4)cc(F)c3-2)[nH]1)C1C[C@@H](C)O[C@@H](C)C1 (single isomer, unassigned) [Compound 55]		1.26 nM	1.86 nM	0.0019 nM	
COC(=O)NC(C(=O)N1CCC[C@H]1c1ncc(-c2ccc3c(c2)cc2n3C(c3ccc4c(c3)CCC(C)O4)Oc3cc(-c4cnc([C@@H]5CCCN5C(=O)[C@@H](NC(=O)OC)C(C)C)[nH]4)cc(F)c3-2)[nH]1)C1C[C@@H](C)O[C@@H](C)C1 (single isomer, unassigned) [Compound 56]	0.0024 nM	0.288 nM	0.114 nM		
COC(=O)NC(C(=O)N1CCC[C@H]1c1ncc(-c2ccc3c(c2)cc2n3C(c3ccc4c(c3)OC(C)CC4)Oc3cc(-c4cnc([C@@H]5CCCN5C(=O)[C@@H](NC(=O)OC)C(C)C)[nH]4)cc(F)c3-2)[nH]1)C1C[C@@H](C)O[C@@H](C)C1 (single isomer, unassigned) [Compound 57]		0.33 nM	0.685 nM	0.002 nM	
COC(=O)NC(C(=O)N1CCC[C@H]1c1ncc(-c2ccc3c(c2)cc2n3C(c3ccc4c(c3)OC(C)CC4)Oc3cc(-c4cnc([C@@H]5CCCN5C(=O)[C@@H](NC(=O)OC)C(C)C)[nH]4)cc(F)c3-2)[nH]1)C1C[C@@H](C)O[C@@H](C)C1 (single isomer, unassigned) [Compound 58]	0.0022 nM	0.403 nM	1.09 nM		
